According to publication PMC10648349, “Aromatic Diboronic Acids as Effective KPC/AmpC Inhibitors” (Molecules, 2023):
Values after ≈ are worked out from the molar mass of the structure shown.

Legend:
[1] = system: E. coli 77 CMY-2-positive; assay: combination disc test CDT-AmpC; assay type: cell-based; conditions: Escherichia coli; ceftazidime 30 µg per disc, 6 mm disc; read-out: Diameter of inhibition zone, CAZ-30 disc without agent
[2] = system: E. coli 77 CMY-2-positive; assay: checkerboard microdilution, antibiotic plus tested agent; assay type: cell-based, Escherichia coli; conditions: Escherichia coli; read-out: MIC of ceftazidime alone
Description: (§1) To examine the ability of tested agents to inhibit various carbapenemases and AmpC-enzymes, their synergy with antibiotics against β-lactamase-producing strains was assessed by checkerboard microdilution assay, with slight modification. Checkerboards were prepared in microtiter plates, with seven two-fold dilutions of β-lactams (1–64 mg/L) in the rows and three two-fold dilutions of tested agents and PBA (4–16 mg/L) in the columns. Tested agents’ concentrations were limited to the concentrations at which the newest commercially available BLIs (vaborbactam, relebactam, and avibactam) are used in susceptibility testing. Plates were inoculated and incubated as in the MIC microdilution assay. Parallel, MICs of tested agents and PBA alone were determined by the microdilution assay. Following the incubation, antibiotic MICs in the presence of each agent’s concentration were determined. Moreover, for the first well without growth found in each checkerboard row and column along the growth/non-growth interface, the fractional inhibitory concentration index (FICI) was calculated using the formula below:FICI = [(MIC of antibiotic in combination)/(MIC of antibiotic alone)] + [(MIC of the tested agent in combination)/(MIC of tested agent alone)].
(§2) For calculations, all off-scale MICs were converted to the next-highest doubling concentration. Subsequently, both the average and the lowest FICI were interpreted. The interpretation was as follows: FICI ≤ 0.5, synergy; 0.5 < FICI ≤ 4, indifference and FICI > 4, antagonism. Primarily, examined combinations consisted of meropenem (Pol-Aura, Morag, Poland) plus tested agents against carbapenemases-producing strains and ceftazidime (Pol-Aura, Morag, Poland) plus tested agents against AmpC-producing strains. For agents that reduced meropenem MIC at least 4-fold for at least two tested strains, similar assays were performed with imipenem (Pol-Aura, Morag, Poland) and ertapenem (Pol-Aura, Morag, Poland).

[3] = system: P. aeruginosa MUW 700 cAmpC-positive; assay: as above; assay type: cell-based, Pseudomonas aeruginosa; conditions: Pseudomonas aeruginosa; read-out: MIC of ceftazidime alone
Description: as §1, §2

[4] = system: P. aeruginosa MUW 700 cAmpC-positive; assay: combination disc test CDT-AmpC; assay type: cell-based; conditions: Pseudomonas aeruginosa; ceftazidime 30 µg per disc, 6 mm disc; read-out: Diameter of inhibition zone, CAZ-30 disc without agent
[5] = system: K. pneumoniae ATCC 700603 ESBL-positive; assay: combination disc test CDT-ESBL; assay type: cell-based; conditions: Klebsiella pneumoniae, ATCC700603; ceftazidime 30 µg per disc, 6 mm disc; read-out: Diameter of inhibition zone, CAZ-30 disc without agent
[6] = MTT-based viability assay; assay type: cell-based; conditions: human, MRC-5 human fibroblasts, 72 h, read-out: Viability of MRC-5 cells (% of viable cells ± SD)
Description: MRC-5 human fibroblasts (ECACC) were cultured in MEME, Minimum Essential Medium Eagle (Merck) supplemented with 10% fetal bovine serum (Merck), 2 mM l-glutamine, antibiotics (100 U/mL penicillin, 100 μg/mL streptomycin, Merck) and 1% non-essential amino acids (Merck). Cells were grown in 75 cm^2 cell culture flasks (Sarstedt) in a humidified atmosphere of CO2/air (5/95%) at 37 °C. MTT-based viability assay was conducted as described previously. Optical densities were measured at 570 nm using a BioTek microplate reader. All measurements were carried out in three replicates, and the results were expressed as a percent of viable cells versus control cells.

S. cerevisiae ATCC 9763 = assay: antifungal activity (disc-diffusion, MIC, MFC); assay type: cell-based; conditions: Saccharomyces cerevisiae, ATCC9763; for MIC: fluconazole by Etest
Description: (§3) Direct antimicrobial activity against Gram-negative and Gram-positive bacterial strains, as well as against yeast, was examined as previously described by the disc-diffusion test, the MIC determination assay, the MBC (for bacteria), and the MFC (for yeasts) determination tests. All the above-mentioned tests were performed according to EUCAST [71, 72] and CLSI [73, 74, 75, 76, 77] recommendations. The following reference agents were used: nitrofurantoin (for Gram-negative rods), linezolid (for Gram-positive bacteria), and fluconazole (in the case of fungi). The new aromatic diboronic acids were dissolved in DMSO (Sigma, St. Louis, MO, USA). In the disc-diffusion test, the concentration of new agents was 0.4 mg per disc.

C. tropicalis ATCC 750 = assay: antifungal activity (disc-diffusion, MIC, MFC); assay type: cell-based; conditions: Candida tropicalis, ATCC750; for MIC: fluconazole by Etest
Description: as §3

C. tropicalis IBA 171 = assay: antifungal activity (disc-diffusion, MIC, MFC); assay type: cell-based; conditions: Candida tropicalis, IBA171; for MIC: fluconazole by Etest
Description: as §3

C. albicans ATCC 90028 = assay: antifungal activity (disc-diffusion, MIC, MFC); assay type: cell-based; conditions: Candida albicans, ATCC90028; for MIC: fluconazole by Etest
Description: as §3

[7] = system: C. parapsilosis ATCC 22019; assay: antifungal activity (disc-diffusion, MIC, MFC); assay type: cell-based, Candida parapsilosis; conditions: Lodderomyces parapsilosis, ATCC22019; for MIC: fluconazole by Etest
Description: as §3

C. krusei ATCC 6258 = assay: antifungal activity (disc-diffusion, MIC, MFC); assay type: cell-based, Candida krusei; conditions: Pichia kudriavzevii, ATCC6258; for MIC: fluconazole by Etest
Description: as §3

S. aureus ATCC 6538P = assay: direct antimicrobial activity (disc-diffusion, MIC, MBC); assay type: cell-based; conditions: Staphylococcus aureus, ATCC6538P
Description: as §3

E. faecium ATCC 6057 = assay: as above; assay type: cell-based; conditions: Enterococcus faecium, ATCC6057
Description: as §3

E. faecalis ATCC 29212 = assay: as above; assay type: cell-based; conditions: Enterococcus faecalis, ATCC29212
Description: as §3

[8] = system: S. epidermidis ATCC 12228; assay: as above; assay type: cell-based; conditions: Staphylococcus epidermidis, ATCC12228
Description: as §3

[9] = system: S. aureus ATCC 43300 MRSA; assay: as above; assay type: cell-based; conditions: Staphylococcus aureus
Description: as §3

[10] = system: C. guilliermondii IBA 155; assay: antifungal activity (disc-diffusion, MIC, MFC); assay type: cell-based, Candida guilliermondii; conditions: Meyerozyma guilliermondii, IBA155; for MIC: fluconazole by Etest
Description: as §3

[11] = system: K. pneumoniae 83 KPC-3-positive, CTX-M-3-positive; assay: checkerboard microdilution, antibiotic plus tested agent; assay type: cell-based, Klebsiella pneumoniae; conditions: Klebsiella pneumoniae; read-out: MIC of imipenem alone
Description: as §1, §2

[12] = system: K. pneumoniae ATCC BAA-1705 KPC-2-positive; assay: as above; assay type: cell-based, Klebsiella pneumoniae; conditions: Klebsiella pneumoniae, ATCCBAA1705; read-out: MIC of imipenem alone
Description: as §1, §2

[13] = system: K. pneumoniae 81 KPC-3-positive; assay: as above; assay type: cell-based, Klebsiella pneumoniae; conditions: Klebsiella pneumoniae; read-out: MIC of imipenem alone
Description: as §1, §2

[14] = system: E. coli 76 KPC-2-positive; assay: as above; assay type: cell-based, Escherichia coli; conditions: Escherichia coli; read-out: MIC of imipenem alone
Description: as §1, §2

[15] = 0.4 mg per disc, 9 mm disc (fluconazole 0.025 mg, 6 mm disc), - no zone, read-out: Diameter of inhibition zone

SMILES | viability at 72 h, 12.5 mg/L [6] [%] | viability at 72 h, 25 mg/L [6] [%] | viability at 72 h, 50 mg/L [6] [%] | MIC (S. cerevisiae ATCC 9763) [µg/mL] | MIC (C. tropicalis ATCC 750) [µg/mL] | MIC (C. tropicalis IBA 171) [µg/mL] | MIC (C. albicans ATCC 90028) [µg/mL] | MIC [7] [µg/mL] | MIC (C. krusei ATCC 6258) [µg/mL] | MIC (S. aureus ATCC 6538P) [µg/mL] | MIC (E. faecium ATCC 6057) [µg/mL] | MIC (E. faecalis ATCC 29212) [µg/mL] | MIC [8] [µg/mL] | MIC [9] [µg/mL] | MIC [10] [µg/mL] | also measured
CC(C)(O/N=C(\C(=O)N[C@@H]1C(=O)N2C(C(=O)[O-])=C(C[n+]3ccccc3)CS[C@H]12)c1csc(N)n1)C(=O)O [CAZ, ceftazidime, reference compound] | – | – | – | – | – | – | – | – | – | – | – | – | – | – | – | zone of inhibition at 30 µg/disc [1]: 13 mm; MIC [2]: 64 µg/mL; MIC [3]: 128 µg/mL; zone of inhibition at 30 µg/disc [4]: 11 mm; zone of inhibition at 30 µg/disc [5]: 14 mm
OB(O)c1c(F)c(F)c(B(O)O)c(F)c1F [1g] | 104 ± 8.2 | 107 ± 9.2 | 98.7 ± 5.8 | > 400 | > 400 | > 400 | > 400 | > 400 | 400 (≈ 1680 µM) | > 400 | > 400 | > 400 | > 400 | > 400 | > 400 | –
C[C@@H](O)[C@H]1C(=O)N2C(C(=O)O)=C(SCCN=CN)C[C@H]12 [IMI, imipenem, reference compound] | – | – | – | – | – | – | – | – | – | – | – | – | – | – | – | MIC [11]: 8 µg/mL; MIC [12]: 16 µg/mL; MIC [13]: 8 µg/mL; MIC [14]: 128 µg/mL
Cl.OB(O)c1cncc(B(O)O)c1 [6a, pyridine-3,5-diboronic acid hydrochloride] | 138 ± 3.6 | 133.5 ± 0.7 | 127 ± 2.6 | > 400 | > 400 | > 400 | > 400 | > 400 | > 400 | 50 | 400 | > 400 | 400 | 400 | > 400 | –
OC(Cn1cncn1)(Cn1cncn1)c1ccc(F)cc1F [Fl, fluconazole, reference compound] | – | – | – | 16 (≈ 52.2 µM) | 0.38 (≈ 1.24 µM) | 0.38 (≈ 1.24 µM) | 1 (≈ 3.27 µM) | 2 (≈ 6.53 µM) | 64 (≈ 209 µM) | – | – | – | – | – | 0.75 (≈ 2.45 µM) | zone of inhibition at 0.4 mg/disc (S. cerevisiae ATCC 9763; [15]): 12 mm; zone of inhibition at 0.4 mg/disc (C. tropicalis ATCC 750; [15]): 40 mm; zone of inhibition at 0.4 mg/disc (C. tropicalis IBA 171; [15]): 39 mm; zone of inhibition at 0.4 mg/disc (C. albicans ATCC 90028; [15]): 43 mm; zone of inhibition at 0.4 mg/disc [7, 15]: 32 mm; zone of inhibition at 0.4 mg/disc (C. krusei ATCC 6258; [15]): 16 mm; zone of inhibition at 0.4 mg/disc [10, 15]: 40 mm
COc1cc(B(O)O)c(OC)cc1B(O)O [1l] | 110 ± 1.6 | 114 ± 1.8 | 105 ± 7.8 | – | – | – | – | – | – | – | – | – | – | – | – | –
OB(O)c1ccc(B(O)O)s1 [5b] | 101 ± 7.7 | 110 ± 2.7 | 87.3 ± 13.6 | > 400 | > 400 | > 400 | 400 (≈ 2330 µM) | > 400 | 400 (≈ 2330 µM) | > 400 | > 400 | 200 (≈ 1160 µM) | > 400 | > 400 | > 400 | –
